Assay results: patent publication US12516016B2, “GPX4 inhibitors, pharmaceutical compositions thereof, and their use for treating GPX4-mediated diseases” (EUBULUS BIOTHERAPEUTICS (HONG KONG) LIMITED, priority 2020, dated 2026)

System: hepatocellular carcinoma cell line Hub-7
Assay: Cell proliferation assay (CELL-TITER GLO cell viability)
Assay type: cell-based
Conditions: 24 h, Hub-7 cells, 24 h incubation, read-out: Inhibition of Cell Proliferation EC50
Outline: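 […] cells (4,000/well) seeded overnight, then exposed 24 h to compound from 10 μM in 3-fold serial dilutions. Viability read by CELL-TITER GLO luminescence; EC50 values derived.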

Compound | EC50 [nM]
C#CC(=O)N(c1ccc2cnn(C)c2c1)C(C(=O)NCc1ccccc1)c1ccccc1 (stereo not drawn) [A104, N-(2-(Benzylamino)-2-oxo-1-phenylethyl)-N-(1-methyl-1H-indazol-6-yl)-propiolamide] | ≤ 100
C#CC(=O)N(c1ccc2nncn2c1)C(C(=O)NCc1ccccc1)c1ccccc1 (stereo not drawn) [A105, N-([1,2,4]Triazolo[4,3-a]pyridin-6-yl)-N-(2-(benzylamino)-2-oxo-1-phenylethyl)-propiolamide] | 100 to 500
C#CC(=O)N(c1cccc2nonc12)C(C(=O)NCc1ccccc1)c1ccccc1 (stereo not drawn) [A106, N-(Benzo[c][1,2,5]oxadiazol-4-yl)-N-(2-(benzylamino)-2-oxo-1-phenylethyl)-propiolamide] | 100 to 500
C#CC(=O)N(c1ccc2c(cnn2C)c1)C(C(=O)NCc1ccccc1)c1ccccc1 (stereo not drawn) [A107, N-(2-(Benzylamino)-2-oxo-1-phenylethyl)-N-(1-methyl-1H-indazol-5-yl)-propiolamide] | ≤ 100
C#CC(=O)N(c1cccc(Cl)c1)C(C(=O)NCc1ccc(C#N)cc1)c1ccccc1 (stereo not drawn) [A114, N-(3-chlorophenyl)-N-(2-((4-cyanobenzyl)amino)-2-oxo-1-phenylethyl)propiolamide] | ≤ 100
C#CC(=O)N(c1cccc(Cl)c1)C(C(=O)NCc1ccc(F)cc1)c1ccccc1 (stereo not drawn) [A115, N-(3-Chlorophenyl)-N-(2-((4-fluorobenzyl)amino)-2-oxo-1-phenylethyl)-propiolamide] | ≤ 100
C#CC(=O)N(c1cccc(Cl)c1)C(C(=O)NCc1ccccc1F)c1ccccc1 (stereo not drawn) [A116, N-(3-Chlorophenyl)-N-(2-((2-fluorobenzyl)amino)-2-oxo-1-phenylethyl)-propiolamide] | 100 to 500
CC#CC(=O)N(c1cccc(Cl)c1)C(C(=O)NCc1ccccc1)c1ccccc1 (stereo not drawn) [A117, N-(2-(Benzylamino)-2-oxo-1-phenylethyl)-N-(3-chlorophenyl)but-2-ynamide] | > 10000
C#CC(=O)N(c1ccc(Cl)cc1)C(C(=O)NC(C)(C)C)c1cccc(N)c1 (stereo not drawn) [A119] | ≤ 100
C#CC(=O)N(c1cccc(C(=O)OC)c1)C(C(=O)NCc1ccccc1)c1cccc(N)c1 (stereo not drawn) [A122] | ≤ 100
C#CC(=O)N(c1cccc(Cl)c1F)C(C(=O)NCc1ccccc1)c1ccc(N)cc1 (stereo not drawn) [A123] | ≤ 100
CC#CC(=O)N(c1ccc2c(cnn2C)c1)C1(C(=O)NCc2ccccc2)CCOCC1 [A125, N-Benzyl-4-(N-(1-methyl-1H-indazol-5-yl)but-2-ynamido)tetrahydro-2H-pyran-4-carboxamide] | > 10000
CC#CC(=O)N(c1ccc2c(cnn2C)c1)C1(C(=O)NCc2ccccc2)CCCOC1 (stereo not drawn) [A126, N-Benzyl-3-(N-(1-methyl-1H-indazol-5-yl)but-2-ynamido)tetrahydro-2H-pyran-3-carboxamide] | 2000 to 10000
CC#CC(=O)N(c1ccc2c(cnn2C)c1)C1(C(=O)NCc2ccccc2)CCCC(C(=O)OC)C1 (stereo not drawn) [A127, Methyl3-(benzylcarbamoyl)-3-(N-(1-methyl-1H-indazol-5-yl)but-2-ynamido)-cyclohexane-1-carboxylate] | > 10000
CC#CC(=O)N(c1ccc(Cl)c(Cl)c1)C(C(=O)NCc1ccccc1)c1ccccc1 (stereo not drawn) [A132, N-(2-(Benzylamino)-2-oxo-1-phenylethyl)-N-(3,4-dichlorophenyl)but-2-ynamide] | > 10000
CC#CC(=O)N(c1cncc(Cl)c1)C(C(=O)NCc1ccccc1)c1ccccc1 (stereo not drawn) [A133, N-(2-(Benzylamino)-2-oxo-1-phenylethyl)-N-(5-chloropyridin-3-yl)but-2-ynamide] | > 10000
C#CC(=O)N(c1cccc(-c2cc[nH]n2)c1)C(C(=O)NCc1ccccc1)c1ccccc1 (stereo not drawn) [A134, N-(3-(1H-Pyrazol-3-yl)phenyl)-N-(2-(benzylamino)-2-oxo-1-phenylethyl)-propiolamide] | ≤ 100
C#CC(=O)N(Cc1cc[nH]n1)C1(C(=O)NCc2ccccc2)CCOCC1 [A137, 4-(N-((1H-Pyrazol-3-yl)methyl)propiolamido)-N-benzyltetrahydro-2H-pyran-4-carboxamide] | > 10000

The next lines start with the values.

EC50 [nM] | Compound
≤ 100 | C#CC(=O)N(c1ccc(Cl)c(Cl)c1)C1(C(=O)NCc2ccccc2)CCOCC1 [A108, N-Benzyl-4-(N-(3,4-dichlorophenyl)propiolamido)tetrahydro-2H-pyran-4-carboxamide]
100 to 500 | C#CC(=O)N(c1ccc(Cl)c(Cl)c1)C1(C(=O)NCc2ccccc2)CCCCC1 [A109, N-Benzyl-1-(N-(3,4-dichlorophenyl)propiolamido)cyclohexanecarboxamide]
100 to 500 | C#CC(=O)N(c1cccc(Cl)c1)[C@]1(C(=O)NCc2ccccc2)CC[C@H](O)CC1 [A110, (1S,4S)—N-Benzyl-1-(N-(3-chlorophenyl)propiolamido)-4-hydroxycyclohexane-carboxamide]
500 to 2000 | C#CC(=O)N(c1cccc(Cl)c1)C(C(=O)NCc1ccccc1)c1ccncc1 (stereo not drawn) [A124]
> 10000 | O=C(C#CCO)N(c1cccc(Cl)c1)C1(C(=O)NCc2ccccc2)CCOCC1 [A129, N-Benzyl-4-(N-(3-chlorophenyl)-4-hydroxybut-2-ynamido)tetrahydro-2H-pyran-4-carboxamide]
> 10000 | O=C(C#CCO)N(c1cc(Cl)ccc1Cl)C1(C(=O)NCc2ccccc2)CCOCC1 [A130, N-Benzyl-4-(N-(2,5-dichlorophenyl)-4-hydroxybut-2-ynamido)tetrahydro-2H-pyran-4-carboxamide]
> 10000 | Cn1ncc2cc(N(C(=O)C#CCO)C3(C(=O)NCc4ccccc4)CCOCC3)ccc21 [A131, N-Benzyl-4-(4-hydroxy-N-(1-methyl-1H-indazol-5-yl)but-2-ynamido)tetrahydro-2H-pyran-4-carboxamide]
100 to 500 | C#CC(=O)N(c1cccc(-c2cc[nH]n2)c1)C1(C(=O)NCc2ccccc2)CCOCC1 [A135, 4-(N-(3-(1H-Pyrazol-3-yl)phenyl)propiolamido)-N-benzyltetrahydro-2H-pyran-4-carboxamide]
100 to 500 | C#CC(=O)N(c1cccc(-c2ccn(C)n2)c1)C1(C(=O)NCc2ccccc2)CCOCC1 [A136, N-Benzyl-4-(N-(3-(1-methyl-1H-pyrazol-3-yl)phenyl)propiolamido)tetrahydro-2H-pyran-4-carboxamide]
≤ 100 | C#CC(=O)N(Cc1cccc(O)c1)C1(C(=O)NCc2ccccc2)CCOCC1 [A138, N-Benzyl-4-(N-(3-hydroxybenzyl)propiolamido)tetrahydro-2H-pyran-4-carboxamide]
≤ 100 | C#CC(=O)N(c1ccccc1N1CCOCC1)C1(C(=O)NCc2ccccc2)CCOCC1 [A139, N-Benzyl-4-(N-(2-morpholinophenyl)propiolamido)tetrahydro-2H-pyran-4-carboxamide]
100 to 500 | C#CC(=O)N(c1ccc(N(C)C)cc1)C1(C(=O)NCc2ccccc2)CCOCC1 [A140, N-Benzyl-4-(N-(4-(dimethylamino)phenyl)propiolamido)tetrahydro-2H-pyran-4-carboxamide]
≤ 100 | C#CC(=O)N(c1cccc2c1OCO2)C1(C(=O)NCc2ccccc2)CCOCC1 [A141, 4-(N-(Benzo[d][1,3]dioxol-4-yl)propiolamido)-N-benzyltetrahydro-2H-pyran-4-carboxamide]

Same assay, conditions: Hub-7 cells, 24 h incubation, read-out: Inhibition of Cell Proliferation EC50

EC50 [nM] | Compound
100 to 500 | C#CC(=O)N(c1cccc(Cl)c1)[C@]1(C(=O)NCc2ccccc2)CC[C@@H](O)CC1 [A111, (1R,4R)—N-Benzyl-1-(N-(3-chlorophenyl)propiolamido)-4-hydroxycyclohexane-carboxamide]
2000 to 10000 | COc1ccc(N(C(=O)C#CCO)C(C(=O)NCCc2ccccc2)c2cccs2)cc1Cl (stereo not drawn) [A118]
